From PMC9718554, “Discovery of a fragment hit compound targeting D-Ala:D-Ala ligase of bacterial peptidoglycan biosynthesis” (Journal of Enzyme Inhibition and Medicinal Chemistry, 2022)
Like-named read-outs stand apart in the source and are kept apart here. Residues, ends and D or L forms follow the SMILES beside them.

Target: T1, E. coli DdlB enzyme (D-alanine:D-alanine ligase) (Escherichia coli, UniProt P07862)
T1 construct: made in house; host or cells: E. coli
Assay: biochemical
Conditions: read-out: DdlB RA; for remaining activity at 1700 µM: tested concentration 1.7 mM; for remaining activity at 2300 µM: tested concentration 2.3 mM; for remaining activity at 2400 µM: tested concentration 2.4 mM; for remaining activity at 2000 µM: tested concentration 2.0 mM; for remaining activity at 2200 µM: tested concentration 2.2 mM; for remaining activity at 1800 µM: tested concentration 1.8 mM; for remaining activity at 2100 µM: tested concentration 2.1 mM; for remaining activity at 1900 µM: tested concentration 1.9 mM

## CNC(=O)CCN1C(=O)CSC1c1ccccc1Cl (stereo not shown) [Compound V026-8598]
  remaining activity at 1700 µM: 109%

## O=C(Nc1ccc(Cl)cc1)Nc1ccccc1C(=O)O [Compound Y020-0051]
Residual activity
  remaining activity at 1700 µM: 119%

## Cc1cc(O)n(C2CCS(=O)(=O)C2)n1 (stereo not shown) [Compound Y020-9160]
  remaining activity at 2300 µM: 99%

## O=C1CCn2ncnc2N1 [Compound Y021-0743]
Residual activity of DdlB, fragment library screening, tested concentration 3.6 mM
  remaining activity at 3600 µM: 98%

## CC1CC(C)(C)Nc2c(C(=O)O)cccc21 (stereo not shown) [Compound Y021-0767]
Residual activity
  remaining activity at 2300 µM: 97%

## CC1=CC(C)(C)Nc2c(C(=O)O)cccc21 [Compound Y021-0768]
Residual activity
  remaining activity at 2300 µM: 105%

## CC1=CC(C)(C)N(C)c2cc(O)ccc21 [Compound Y021-0895]
Tested concentration 2.7 mM
  remaining activity at 2700 µM: 88%

## CC(=O)c1cc2c(cc1C)NC(C)(C)CC2C (stereo not shown) [Compound Y021-0953]
  remaining activity at 2400 µM: 97%

## CC(C)NS(=O)(=O)c1ccc(F)cc1 [Compound Y030-0983]
Tested concentration 2.8 mM
  remaining activity at 2800 µM: 94%

## CC1CN(S(=O)(=O)c2ccc(F)cc2)CC(C)O1 (stereo not shown) [Compound Y030-1235]
Residual activity
  remaining activity at 2000 µM: 93%

## CC1CCCN(S(=O)(=O)Cc2ccccc2)C1 (stereo not shown) [Compound Y030-1494]
  remaining activity at 2400 µM: 79%

## Cc1onc(-c2ccccc2Cl)c1C(=O)NCC#N [Compound Y030-1543]
Residual activity
  remaining activity at 2200 µM: 98%

## COc1cccc(C(=O)Nc2ccccc2C(=O)O)c1 [Compound Y030-1668]
Residual activity
  remaining activity at 1800 µM: 97%

## O=C(O)c1ccccc1NC(=O)C1CCCCC1 [Compound Y030-1673]
  remaining activity at 2000 µM: 104%

## NS(=O)(=O)c1ccc(CNC(=O)N2CCOCC2)cc1 [Compound Y030-3729]
  remaining activity at 1700 µM: 104%

## CCCC(C)C(=O)Nc1ccc(S(N)(=O)=O)cc1 (stereo not shown) [Compound Y030-4922]
  remaining activity at 1800 µM: 77%

## CC(CCc1ccccc1)NC(=O)N1CCOCC1 (stereo not shown) [Compound Y030-6075]
Residual activity
  remaining activity at 2100 µM: 94%

## NS(=O)(=O)c1ccc(CNC(=O)C2CCCO2)cc1 (stereo not shown) [Compound Y030-8649]
  remaining activity at 1800 µM: 97%

## CCCCC(=O)Nc1ccc(S(N)(=O)=O)cc1 [Compound Y030-9753]
  remaining activity at 2000 µM: 96%

## CC(C)(C)NS(=O)(=O)Cc1ccc(Cl)cc1 [Compound Y031-1123]
  remaining activity at 2300 µM: 91%

## Cc1cc(NC(=O)C2CC(=O)N(C3CCCCC3)C2)no1 (stereo not shown) [Compound Y031-2007]
Residual activity
  remaining activity at 1900 µM: 83%

## CCC(C)(C)NC(=O)C1CC(=O)N(c2ccccc2)C1 (stereo not shown) [Compound Y031-3748]
Residual activity
  remaining activity at 2200 µM: 101%

## C[C@H](NC(=O)[C@H](C)n1nnc2ccccc2c1=O)C(=O)O [Compound Y040-2749]
Fragment library screening
  remaining activity at 1700 µM: 92%

## CC(=O)N1CCC2(CCc3ccc(O)cc3O2)CC1 [Compound Y041-9811]
  remaining activity at 2100 µM: 94%

## O=C(O)c1ccc(N2Cc3ccccc3C2=O)cc1 [Compound Y042-2866]
Fragment library screening
  remaining activity at 2000 µM: 82%

## O=c1[nH]c2ncc(Br)cc2o1 [Compound Y042-2897]
  remaining activity at 2300 µM: 92%

## O=C(O)C[C@H]1NC(=O)N(CCc2cccc(F)c2)C1=O [Compound Y042-2983]
Fragment library screening
  remaining activity at 1800 µM: 93%

## O=C(O)CCc1nnc2ccccn2c1=O [Compound Y042-3065]
  remaining activity at 2300 µM: 102%

## O=C(O)C(Cc1ccccc1)Nc1ncccn1 (stereo not shown) [Compound Y042-3157]
  remaining activity at 2100 µM: 90%

## O=C(O)CCCc1nc2ccccc2c(=O)n1C1CC1 [Compound Y042-5065]
Fragment library screening
  remaining activity at 1800 µM: 92%

## O=C(O)c1cc(-c2cccnc2)nc2ccccc12 [Compound Y042-7719]
Fragment library screening
  remaining activity at 2000 µM: 85%

## O=C(O)CC1CCN(c2ccc(Cl)nn2)CC1 [Compound Y043-2007]
Fragment library screening
  remaining activity at 2000 µM: 90%

## O=C(O)c1ccccc1NC(=O)N1CCOCC1 [Compound Y043-2494]
Residual activity
  remaining activity at 2000 µM: 96%

## CN1CCN(C(=O)Nc2ccccc2C(=O)O)CC1 [Compound Y043-2499]
Residual activity
  remaining activity at 1900 µM: 92%

## O=C(O)c1ccnc(N2CCOCC2)c1 [Compound Y043-8163]
  remaining activity at 2400 µM: 89%

## NCC(=O)N[C@@H](Cc1ccc(O)cc1)C(=O)O [Compound Y043-8421] (H-Gly-Tyr-OH)
  remaining activity at 2100 µM: 95%

## O=C(O)CCCn1cnc2ccc([N+](=O)[O-])cc2c1=O [Compound Y044-6460]
Fragment library screening
  remaining activity at 1800 µM: 63%

## O=C(O)CCC(=O)N1CCO[C@H](c2ccccc2)C1 [Compound Y044-6579]
Fragment library screening
  remaining activity at 1900 µM: 93%

## CCOc1ccc(S(N)(=O)=O)cc1C [Compound Y050-1019]
  remaining activity at 2300 µM: 79%

## Cc1ccc(S(N)(=O)=O)cc1C(=O)NCC(C)C [Compound Y050-1744]
  remaining activity at 1800 µM: 83%
